{
  "source": "ChEMBL document CHEMBL1150507",
  "about": "“New hydroxy-amido-anthraquinones as potential antineoplastic drugs” (1992)",
  "key": {"[1]": {"test_system": "HeLa", "assay": "Compound was tested for tumor cell growth inhibition against HeLa cell line", "format": "functional", "conditions": "Homo sapiens, read-out: ID50 (the source's name)"}, "[2]": {"test_system": "HL-60", "assay": "Compound was tested for tumor cell growth inhibition against HL 60 cell line", "format": "functional", "conditions": "Homo sapiens, read-out: ID50 (the source's name)"}},
  "data": [
    {"smiles": "CCN(CC)CCC(=O)Nc1ccc(NC(=O)CCN(CC)CC)c2c1C(=O)c1c(O)ccc(O)c1C2=O", "values": [
      {"measurement": "IC50", "setting": "[1]", "value": 3140, "unit": "nM"},
      {"measurement": "IC50", "setting": "[2]", "value": 100, "unit": "nM"}
    ]},
    {"smiles": "CCN(CC)CC(=O)Nc1ccc(NC(=O)CN(CC)CC)c2c1C(=O)c1c(O)ccc(O)c1C2=O", "values": [
      {"measurement": "IC50", "setting": "[1]", "value": "> 38000", "unit": "nM"},
      {"measurement": "IC50", "setting": "[2]", "value": 4900, "unit": "nM"}
    ]},
    {"smiles": "O=C1c2c(O)ccc(O)c2C(=O)c2c(NCCNCCO)ccc(NCCNCCO)c21", "note": "[MITOXANTRONE]", "values": [
      {"measurement": "IC50", "setting": "[1]", "value": 2770, "unit": "nM"},
      {"measurement": "IC50", "setting": "[2]", "value": 90, "unit": "nM"}
    ]},
    {"smiles": "CCN(CC)CC(=O)Nc1ccc(O)c2c1C(=O)c1c(O)ccc(O)c1C2=O", "values": [
      {"measurement": "IC50", "setting": "[1]", "value": 26100, "unit": "nM"},
      {"measurement": "IC50", "setting": "[2]", "value": 1640, "unit": "nM"}
    ]},
    {"smiles": "CCN(CC)CCC(=O)Nc1ccc(O)c2c1C(=O)c1c(O)ccc(O)c1C2=O", "values": [
      {"measurement": "IC50", "setting": "[1]", "value": 8050, "unit": "nM"},
      {"measurement": "IC50", "setting": "[2]", "value": 110, "unit": "nM"}
    ]}
  ]
}
